Common to all, as to assay type: cell-based
The target of series [1] is T1, Oxysterols receptor LXR-alpha (Homo sapiens) (UniProt Q13133).
T1 sequence (whole entry): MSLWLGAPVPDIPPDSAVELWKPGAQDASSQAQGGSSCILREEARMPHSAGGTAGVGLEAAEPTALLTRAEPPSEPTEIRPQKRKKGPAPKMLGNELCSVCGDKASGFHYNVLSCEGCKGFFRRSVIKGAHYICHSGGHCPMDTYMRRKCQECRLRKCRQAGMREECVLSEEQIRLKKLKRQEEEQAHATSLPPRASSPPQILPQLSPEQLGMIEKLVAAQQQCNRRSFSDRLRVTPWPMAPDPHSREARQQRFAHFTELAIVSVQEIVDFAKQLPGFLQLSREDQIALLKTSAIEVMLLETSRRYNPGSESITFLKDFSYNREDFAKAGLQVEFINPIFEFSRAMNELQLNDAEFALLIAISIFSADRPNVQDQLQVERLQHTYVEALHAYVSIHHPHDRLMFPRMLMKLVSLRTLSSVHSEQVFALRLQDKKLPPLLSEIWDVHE
Nature of the series: Activation of human LXR-alpha LBD expressed in HEK293T cells assessed as induction of receptor activation at 10 uM incubated for 12 to 14 hrs by luciferase reporter gene assay. As to conditions: HEK-293T. Background: A reporter such as luciferase makes a cellular process visible.

In series [2] the target is T2, Bile acid receptor (Homo sapiens) (UniProt Q96RI1).
T2 sequence (whole entry): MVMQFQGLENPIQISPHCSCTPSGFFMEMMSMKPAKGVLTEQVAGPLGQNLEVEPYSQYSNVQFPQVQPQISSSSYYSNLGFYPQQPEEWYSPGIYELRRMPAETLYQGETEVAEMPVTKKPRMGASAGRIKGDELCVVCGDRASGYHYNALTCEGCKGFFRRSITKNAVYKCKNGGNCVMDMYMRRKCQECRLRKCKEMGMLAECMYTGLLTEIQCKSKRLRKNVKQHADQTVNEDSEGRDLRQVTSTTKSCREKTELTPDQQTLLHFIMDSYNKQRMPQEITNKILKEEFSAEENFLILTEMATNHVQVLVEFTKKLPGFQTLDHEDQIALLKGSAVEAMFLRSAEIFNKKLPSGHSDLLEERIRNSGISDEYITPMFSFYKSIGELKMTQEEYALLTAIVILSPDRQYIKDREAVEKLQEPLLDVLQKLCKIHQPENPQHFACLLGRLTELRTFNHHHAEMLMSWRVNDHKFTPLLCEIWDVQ
Nature of the series: Activation of FXR in human HepG2 cells assessed as increase in BSEP mRNA expression at 3 uM incubated for 8 hrs by quantitative real time PCR analysis. Background: In qPCR the cycle at which signal appears reflects the starting amount.

Series [3] concerns the target T2, Bile acid receptor (Homo sapiens). Nature of the series: Activation of FXR in human HepG2 cells assessed as decrease in CYP7A1 mRNA expression at 3 uM incubated for 8 hrs by quantitative real time PCR analysis.
The next series has as its system HepG2. Nature of the series: Toxicity in human HepG2 cells assessed as reduction in cell viability up to 100 uM incubated for 48 hrs by WST1 assay. The following applies: hepg2, 48 h. In general terms: Tetrazolium assays rely on reduction of a dye to a coloured formazan, in cell work by metabolically active cells.
In series [4] the target is T3, Peroxisome proliferator-activated receptor alpha (Homo sapiens) (UniProt Q07869).
T3 sequence (whole entry): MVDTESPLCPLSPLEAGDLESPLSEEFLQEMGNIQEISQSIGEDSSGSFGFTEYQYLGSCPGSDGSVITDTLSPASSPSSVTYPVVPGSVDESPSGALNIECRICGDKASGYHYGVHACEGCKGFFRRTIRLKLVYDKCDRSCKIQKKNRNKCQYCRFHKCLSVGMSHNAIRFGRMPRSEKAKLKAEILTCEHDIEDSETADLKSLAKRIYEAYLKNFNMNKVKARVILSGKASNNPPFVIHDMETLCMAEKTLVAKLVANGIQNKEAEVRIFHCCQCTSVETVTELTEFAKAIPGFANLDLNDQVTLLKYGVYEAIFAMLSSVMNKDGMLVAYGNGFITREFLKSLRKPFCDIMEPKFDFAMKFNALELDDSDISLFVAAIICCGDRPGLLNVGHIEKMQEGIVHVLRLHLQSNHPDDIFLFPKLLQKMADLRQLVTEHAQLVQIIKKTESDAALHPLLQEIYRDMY
Nature of the series: Activation of human PPAR-alpha LBD expressed in HEK293T cells assessed as induction of receptor activation at 10 uM incubated for 12 to 14 hrs by luciferase reporter gene assay. As to conditions: HEK-293T.

Active and inactive are the calls of the source. The rule behind the calls is not given here.

As to `CC(C)c1onc(-c2c(Cl)cccc2Cl)c1COc1ccc(CNc2ccc(CC(=O)O)cc2)c(Cl)c1`, the outcome in series [1] and in series [4] was inactive. Further, the result in series [2] and in series [3] was Active. Also, in the series on HepG2, the Activity entry is “Non-Toxic”.

Values taken from ChEMBL document CHEMBL4627415, “Design and Structural Optimization of Dual FXR/PPARδ Activators” (J Med Chem, 2020).
